In patent US9802992B2, “Cell into which protein, which can serve as polymerization nucleus of protein polymer, or polymer thereof is introduced, and method for production of the cell” (TOKYO ME[…] OF MEDICAL SCIENCE, priority 2005, dated 2017):

Key:
[1] = system: SH-SY5Y cells into which α-synuclein plasmid and fibrils are introduced (WT+FαS cells); assay: Cell death assay (LDH leakage) in the cellular model of α-synuclein proteinopathy; type: cell-based; conditions: Gossypetin (20 μM), incubated three days; without polyphenol approximately 50% (FIG. 8)
Protocol: A cell death assay was performed using cells into which pcDNA3-α-syn vector and α-synuclein fibrils are introduced, and which had been incubated for three days either in the presence or the absence of a fibrillization inhibitor. Gossypetin (20 μM) which is a type of polyphenol was used as the fibrillization inhibitor.
After incubation for three days, a portion of the cell media in the culture was harvested. The cells from the remaining media were prepared as a Tris-soluble fraction in the same manner as the Tris-soluble fraction described above. A cell death assay was performed on the harvested media and the Tris-soluble fraction using a CYTOTOX 96™ Non-Radioactive Cytotoxicity Assay Kit (Promega). The method was performed in accordance with the explanatory material accompanying the kit.
A cell death assay was performed on the following three types of cells: untreated cells (none), FαS cells into which only α-synuclein fibril was introduced, and WT+FαS cells into which fibril and α-synuclein plasmid DNA were introduced. After culturing the cells for three days, cell death was evaluated by lactate dehydrogenase (LDH) leakage assay. This assay is based on determining how much LDH originally inside the cell has leaked outside the cell as a result of cell death.
Gossypetin was added to SH-SY5Y cells into which α-synuclein plasmid and fibrils are introduced, and incubated for three days. […]

α-synuclein = molecular target: T1, α-synuclein (Homo sapiens, UniProt P37840); assay: Inhibition of fibrillization of α-synuclein in vitro (thioflavin S fluorescence); type: biochemical; conditions: 2 mg/mL α-synuclein, shaking at 37° C., 20 μM Gossypetin, compared with sample without Gossypetin (FIG. 7)
T1 construct: made in house; host or cells: E. coli BL21(DE3), pRK172 vector
Protocol: Gossypetin, a polyphenol compound may be taken as an example of a candidate substance. Gossypetin is a flavonol contained in Gossypium herbaceum LINNE and is polyphenol compound used as a food additive. For example, it is possible to investigate whether Gossypetin inhibits fibrillization of α-synuclein in vitro by incubating α-synuclein in the presence of Gossypetin, adding thioflavin S to the solution after the reaction and measuring the fluorescence intensity. Thioflavin S is a test reagent which emits fluorescence upon binding to a protein which can serve as a polymerization nucleus of a protein polymer, or a protein polymer thereof, which are rich in β-sheet structure and which therefore can be used to determine the presence or absence of a protein which can serve as a polymerization nucleus of a protein polymer, or a protein polymer thereof. In contrast, since α-synuclein fibrils are rich in β-sheet structure, if Gossypetin inhibits fibrillization of α-synuclein, the fluorescence intensity should be lower than samples to which Gossypetin has not been added.
[…] Fluorescence intensity was measured using a Hitachi F4000 spectrophotometer (excitation wavelength 440 nm, fluorescence wavelength 520 nm).
2 mg/mL of α-synuclein was incubated with shaking at 37° C. in the presence or absence of 20 μM of Gossypetin. Fibril formation was measured by thioflavin S fluorescence. […]

Structure (SMILES): O=c1c(O)c(-c2ccc(O)c(O)c2)oc2c(O)c(O)cc(O)c12 [Gossypetin]
- rate of cell death [1]: conspicuous inhibition
- thioflavin S fluorescence intensity (fibril formation of α-synuclein) (α-synuclein): conspicuous decrease
